Patent US20260258032A1, “TYROSINE KINASE 2 INHIBITORS AND USES THEREOF” (BIOGEN MA INC., priority 2022, published 2026)
Where a name gives a salt, the structure may show the parent alone.

Assays:
[1] = system: Tyk2 kinase activity on STAT4; assay: pSTAT4 cell assay (MSD, NK92 cells); type: cell-based; settings: compounds 1 hr, stimulated 15 minutes
In short: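 Read-out: phospho-STAT in NK92 lysates, MSD format, anti-STAT4 antibodies. Cells were serum-starved, given compound for 1 hr (10 μM top, four-fold, 10 points) and IL2-stimulated (30 ng/mL, 15 min). Normalized percent activity vs log concentration, 4-parameter logistic fit gave IC50.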

[2] = molecular target: T1, JH2 domain of human Tyk2 (Homo sapiens, UniProt P29597); assay: JH2 biochemical assay (TR-FRET probe displacement); type: binding; settings: JH2 biochemical assay
T1 construct: 10×His-tagged TYK2 JH2 domain (amino acid 575-876)
In short: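 A probe-displacement TR-FRET readout: compounds, tested in 3-fold, 10-point dilutions starting at […], compete with 2 nM tracer for 2 nM His-tagged JH2 (residues 575-876) detected by 0.1 nM Tb-anti-His over 60 min. IC50 comes from 4-parameter fits of normalized 520/495 nm ratios.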

T1 sequence (P29597 575-876): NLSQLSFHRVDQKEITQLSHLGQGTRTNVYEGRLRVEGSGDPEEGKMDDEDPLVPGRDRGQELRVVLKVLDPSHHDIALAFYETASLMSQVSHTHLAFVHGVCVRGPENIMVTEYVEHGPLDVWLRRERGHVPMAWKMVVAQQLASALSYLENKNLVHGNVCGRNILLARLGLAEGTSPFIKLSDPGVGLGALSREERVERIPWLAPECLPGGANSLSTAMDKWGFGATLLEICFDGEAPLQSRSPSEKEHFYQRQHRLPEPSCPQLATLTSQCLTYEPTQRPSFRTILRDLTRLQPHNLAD

| SMILES | IC50 [1] [µM] | IC50 [2] [µM] |
| --- | --- | --- |
| CC(=O)Nc1cc2c(cn1)C1(CC1)CN2c1cc(C)cc(OC2CCC(O)C2)n1 (stereo not shown) [Example 337, N-(1′-(6-((3-hydroxycyclopentyl)oxy)-4-methylpyridin-2-yl)-1′,2′-dihydrospiro[cyclopropane-1,3′-pyrrolo[3,2-c]pyridin]-6′-yl)acetamide trifluoroacetate] | 0.1 to 1 | 0.01 to 0.1 |
| COC1CCC(Oc2cc(C)cc(N3CC4(CC4)c4cnc(NC(C)=O)cc43)n2)C1 (stereo not shown) [Example 338, N-(1′-(6-((3-methoxycyclopentyl)oxy)-4-methylpyridin-2-yl)-1′,2′-dihydrospiro[cyclopropane-1,3′-pyrrolo[3,2-c]pyridin]-6′-yl)acetamide trifluoroacetate] | 0.1 to 1 | 0.1 to 1 |
| CC(=O)Nc1cc2c(cn1)C1(CC1)CN2c1cc(C)cc(OC2CCOC2)n1 (stereo not shown) [Example 339, N-(1′-(4-methyl-6-((tetrahydrofuran-3-yl)oxy)pyridin-2-yl)-1′,2′-dihydrospiro[cyclopropane-1,3′-pyrrolo[3,2-c]pyridin]-6′-yl)acetamide trifluoroacetate] | ≥ 1 | 0.01 to 0.1 |
| CC(=O)Nc1cc2c(cn1)C1(CC1)CN2c1cc(C)cc(OC2CCC2)n1 [Example 340, N-(1′-(6-cyclobutoxy-4-methylpyridin-2-yl)-1′,2′-dihydrospiro[cyclopropane-1,3′-pyrrolo[3,2-c]pyridin]-6′-yl)acetamide trifluroacetate] | ≥ 1 | 0.01 to 0.1 |
| CC(=O)Nc1cc2c(cn1)C1(CC1)CN2c1cc(C)cc(OC2COC2)n1 [Example 341, N-(1′-(4-methyl-6-(oxetan-3-yloxy)pyridin-2-yl)-1′,2′-dihydrospiro[cyclopropane-1,3′-pyrrolo[3,2-c]pyridin]-6′-yl)acetamide trifluoroacetate] | ≥ 1 | ≥ 1 |
| CC(=O)Nc1cc2c(cn1)C1(CC1)CN2c1cc(C)cc(OC2CC(O)C2)n1 (stereo not shown) [Example 342, N-(1′-(6-(3-hydroxycyclobutoxy)-4-methylpyridin-2-yl)-1′,2′-dihydrospiro[cyclopropane-1,3′-pyrrolo[3,2-c]pyridin]-6′-yl)acetamide] | ≥ 1 | 0.1 to 1 |
| COC1CC(Oc2cc(C)cc(N3CC4(CC4)c4cnc(NC(C)=O)cc43)n2)C1 (stereo not shown) [Example 343, N-(1′-(6-(3-methoxycyclobutoxy)-4-methylpyridin-2-yl)-1′,2′-dihydrospiro[cyclopropane-1,3′-pyrrolo[3,2-c]pyridin]-6′-yl)acetamide trifluoroacetate] | ≥ 1 | 0.1 to 1 |
| CC(=O)Nc1cc2c(cn1)C1(CC1)CN2c1cc(C)cc(OC2CC(C#N)C2)n1 (stereo not shown) [Example 344, N-(1′-(6-(3-cyanocyclobutoxy)-4-methylpyridin-2-yl)-1′,2′-dihydrospiro[cyclopropane-1,3′-pyrrolo[3,2-c]pyridin]-6′-yl)acetamide trifluoroacetate] | ≥ 1 | 0.1 to 1 |
| COCC1CC(Oc2cc(C)cc(N3CC4(CC4)c4cnc(NC(C)=O)cc43)n2)C1 (stereo not shown) [Example 345, N-(1′-(6-(3-(methoxymethyl)cyclobutoxy)-4-methylpyridin-2-yl)-1′,2′-dihydrospiro[cyclopropane-1,3′-pyrrolo[3,2-c]pyridin]-6′-yl)acetamide trifluoroacetate] | ≥ 1 | 0.1 to 1 |
| CC(=O)Nc1cc2c(cn1)C1(CC1)CN2c1cc(C)cc(OC2CC(F)C2)n1 (stereo not shown) [Example 346, N-(1′-(6-(3-fluorocyclobutoxy)-4-methylpyridin-2-yl)-1′,2′-dihydrospiro[cyclopropane-1,3′-pyrrolo[3,2-c]pyridin]-6′-yl)acetamide trifluoroacetate] | ≥ 1 | 0.1 to 1 |
| CC(=O)Nc1cc2c(cn1)C1(CC1)CN2c1cc(C)cc(OC2CC(C)C2)n1 (stereo not shown) [Example 347, N-(1′-(4-methyl-6-(3-methylcyclobutoxy)pyridin-2-yl)-1′,2′-dihydrospiro[cyclopropane-1,3′-pyrrolo[3,2-c]pyridin]-6′-yl)acetamide trifluoroacetate] | ≥ 1 | 0.1 to 1 |
| CC(=O)Nc1cc2c(cn1)C1(CC1)CN2c1cc(C)cc(OC2CC(F)C2)n1 (stereo not shown) [Example 348, N-(1′-(6-(3-fluorocyclobutoxy)-4-methylpyridin-2-yl)-1′,2′-dihydrospiro[cyclopropane-1,3′-pyrrolo[3,2-c]pyridin]-6′-yl)acetamide trifluoroacetate] | ≥ 1 | 0.1 to 1 |
| CC(=O)Nc1cc2c(cn1)C1(CC1)CN2c1cc(C)cc(OCC23CC(C)(CO2)C3)n1 [Example 349, N-(1′-(4-methyl-6-((4-methyl-2-oxabicyclo[2.1.1]hexan-1-yl)methoxy)pyridin-2-yl)-1′,2′-dihydrospiro[cyclopropane-1,3′-pyrrolo[3,2-c]pyridin]-6′-yl)acetamide] | ≥ 1 | 0.1 to 1 |
| COC1CC(COc2cc(C)cc(N3CC4(CC4)c4cnc(NC(C)=O)cc43)n2)C1 (stereo not shown) [Example 350, N-(1′-(6-((3-methoxycyclobutyl)methoxy)-4-methylpyridin-2-yl)-1′,2′-dihydrospiro[cyclopropane-1,3′-pyrrolo[3,2-c]pyridin]-6′-yl)acetamide] | ≥ 1 | 0.1 to 1 |
| COC1(COc2cc(C)cc(N3CC4(CC4)c4cnc(NC(C)=O)cc43)n2)CCC1 [Example 351, N-(1′-(6-((1-methoxycyclobutyl)methoxy)-4-methylpyridin-2-yl)-1′,2′-dihydrospiro[cyclopropane-1,3′-pyrrolo[3,2-c]pyridin]-6′-yl)acetamide] | ≥ 1 | 0.1 to 1 |
| CC(=O)Nc1cc2c(cn1)C1(CC1)CN2c1cc(C)cc(OCC2CC2)n1 [Example 352, N-(1′-(6-(cyclopropylmethoxy)-4-methylpyridin-2-yl)-1′,2′-dihydrospiro[cyclopropane-1,3′-pyrrolo[3,2-c]pyridin]-6′-yl)acetamide trifluoroacetate] | ≥ 1 | 0.1 to 1 |
| CC(=O)Nc1cc2c(cn1)C1(CC1)CN2c1cc(C)cc(OC2CCC(F)C2)n1 (stereo not shown) [Example 353, N-(1′-(6-((3-fluorocyclopentyl)oxy)-4-methylpyridin-2-yl)-1′,2′-dihydrospiro[cyclopropane-1,3′-pyrrolo[3,2-c]pyridin]-6′-yl)acetamide trifluoroacetate] | ≥ 1 | 0.1 to 1 |
| CC(=O)Nc1cc2c(cn1)C1(CC1)CN2c1cc(C)cc(OC2CCCC2)n1 [Example 354, N-(1′-(6-(cyclopentyloxy)-4-methylpyridin-2-yl)-1′,2′-dihydrospiro[cyclopropane-1,3′-pyrrolo[3,2-c]pyridin]-6′-yl)acetamide trifluoroacetate] | ≥ 1 | 0.1 to 1 |
| CC(=O)Nc1cc2c(cn1)C1(CC1)CN2c1cc(C)cc(OCCF)n1 [Example 355, N-(1′-(6-(2-fluoroethoxy)-4-methylpyridin-2-yl)-1′,2′-dihydrospiro[cyclopropane-1,3′-pyrrolo[3,2-c]pyridin]-6′-yl)acetamide trifluoroacetate] | 0.1 to 1 | ≤ 0.01 |
| CC(=O)Nc1cc2c(cn1)C1(CC1)CN2c1cc(C)cc(OCC(C)(F)F)n1 [Example 356, N-(1′-(6-(2,2-difluoropropoxy)-4-methylpyridin-2-yl)-1′,2′-dihydrospiro[cyclopropane-1,3′-pyrrolo[3,2-c]pyridin]-6′-yl)acetamide trifluoroacetate] | ≥ 1 | 0.01 to 0.1 |
| COCCOc1cc(C)cc(N2CC3(CC3)c3cnc(NC(C)=O)cc32)n1 [Example 357, N-(1′-(6-(2-methoxyethoxy)-4-methylpyridin-2-yl)-1′,2′-dihydrospiro[cyclopropane-1,3′-pyrrolo[3,2-c]pyridin]-6′-yl)acetamide trifluoroacetate] | ≥ 1 | 0.01 to 0.1 |
| CC(=O)Nc1cc2c(cn1)C1(CC1)CN2c1cc(C)cc(OCC2CCO2)n1 (stereo not shown) [Example 358, N-(1′-(4-methyl-6-(oxetan-2-ylmethoxy)pyridin-2-yl)-1′,2′-dihydrospiro[cyclopropane-1,3′-pyrrolo[3,2-c]pyridin]-6′-yl)acetamide trifluoroacetate] | ≥ 1 | ≥ 1 |
| CC(=O)Nc1cc2c(cn1)C1(CC1)CN2c1cc(OC2CCN(C)C2)nc(C(C)(F)F)n1 (stereo not shown) [Example 359, N-(1′-(2-(1,1-difluoroethyl)-6-((1-methylpyrrolidin-3-yl)oxy)pyrimidin-4-yl)-1′,2′-dihydrospiro[cyclopropane-1,3′-pyrrolo[3,2-c]pyridin]-6′-yl)acetamide trifluoroacetate] | ≥ 1 | 0.01 to 0.1 |
| CC(=O)Nc1cc2c(cn1)C1(CC1)CN2c1cc(C)nc(OC2CC(F)(F)C2)n1 [Example 363, N-(1′-(2-(3,3-difluorocyclobutoxy)-6-methylpyrimidin-4-yl)-1′,2′-dihydrospiro[cyclopropane-1,3′-pyrrolo[3,2-c]pyridin]-6′-yl)acetamide] | ≥ 1 | 0.1 to 1 |
| CC(=O)Nc1cc2c(cn1)C1(CC1)CN2c1cc(C)nc(OC2CC3(COC3)C2)n1 [Example 364, N-(1′-(2-((2-oxaspiro[3.3]heptan-6-yl)oxy)-6-methylpyrimidin-4-yl)-1′,2′-dihydrospiro[cyclopropane-1,3′-pyrrolo[3,2-c]pyridin]-6′-yl)acetamide] | ≥ 1 | 0.1 to 1 |
| CC(=O)Nc1cc2c(cn1)C1(CC1)CN2c1cc(C)nc(OC2CC(C)C2)n1 (stereo not shown) [Example 367, N-(1′-(6-methyl-2-(3-methylcyclobutoxy)pyrimidin-4-yl)-1′,2′-dihydrospiro[cyclopropane-1,3′-pyrrolo[3,2-c]pyridin]-6′-yl)acetamide] | ≥ 1 | 0.1 to 1 |
